From patent publication US20050014845A1, “Ambroxol for the treatment of epilepsy” (Boehringer Ingelheim International GmbH, priority 2003, published 2005)

Assays:
human GluR1/2 receptors = molecular target: T1, human GluR1/2 receptors (Homo sapiens, UniProt P42261+P42262); test: Patch-Clamp of glutamate-induced membrane currents in HEK 293 cells expressing GluR1/2; type: cell-based; settings: 1 mM glutamate for 1 s, holding potential −80 mV
T1 construct: expressed in transfected cells; host or cells: HEK 293
Method: HEK 293 cells which expressed functionally recombinant human GluR1/2 receptors were electrophysiologically investigated by the Patch-Clamp method ([…]). The administration of 1 mM glutamate (for 1 s at a holding potential of −80 mV) induced membrane currents which were inhibited by the joint administration of ambroxol.

[1] = system: centrally expressed neuronal sodium channels; settings: neuronal sodium channel subtypes, read-out: half-maximal inhibition of centrally expressed channels; cited from earlier work

T1 sequence (P42261 19-906): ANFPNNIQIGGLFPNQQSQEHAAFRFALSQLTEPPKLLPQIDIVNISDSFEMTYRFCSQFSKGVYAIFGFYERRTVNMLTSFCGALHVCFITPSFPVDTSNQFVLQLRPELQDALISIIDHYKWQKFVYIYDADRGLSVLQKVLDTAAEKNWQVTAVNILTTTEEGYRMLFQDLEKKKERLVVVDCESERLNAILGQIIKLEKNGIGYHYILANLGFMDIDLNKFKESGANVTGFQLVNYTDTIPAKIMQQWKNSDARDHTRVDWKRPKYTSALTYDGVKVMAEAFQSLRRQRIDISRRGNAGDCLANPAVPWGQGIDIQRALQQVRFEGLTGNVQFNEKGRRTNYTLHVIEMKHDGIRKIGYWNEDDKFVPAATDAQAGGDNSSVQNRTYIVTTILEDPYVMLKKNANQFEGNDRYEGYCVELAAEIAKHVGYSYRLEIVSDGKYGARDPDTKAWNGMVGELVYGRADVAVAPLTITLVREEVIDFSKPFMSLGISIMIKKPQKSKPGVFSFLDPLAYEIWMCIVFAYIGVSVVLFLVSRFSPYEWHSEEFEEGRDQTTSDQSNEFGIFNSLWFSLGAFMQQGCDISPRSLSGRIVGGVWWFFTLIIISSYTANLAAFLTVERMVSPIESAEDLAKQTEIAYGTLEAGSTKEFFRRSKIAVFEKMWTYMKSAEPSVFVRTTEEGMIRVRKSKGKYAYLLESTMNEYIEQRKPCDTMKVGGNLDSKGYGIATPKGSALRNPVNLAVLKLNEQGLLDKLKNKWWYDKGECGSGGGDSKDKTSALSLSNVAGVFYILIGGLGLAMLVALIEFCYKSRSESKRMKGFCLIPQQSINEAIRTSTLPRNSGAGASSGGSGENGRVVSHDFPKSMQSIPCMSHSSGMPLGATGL
T1 sequence (P42262 22-883 limits assumed): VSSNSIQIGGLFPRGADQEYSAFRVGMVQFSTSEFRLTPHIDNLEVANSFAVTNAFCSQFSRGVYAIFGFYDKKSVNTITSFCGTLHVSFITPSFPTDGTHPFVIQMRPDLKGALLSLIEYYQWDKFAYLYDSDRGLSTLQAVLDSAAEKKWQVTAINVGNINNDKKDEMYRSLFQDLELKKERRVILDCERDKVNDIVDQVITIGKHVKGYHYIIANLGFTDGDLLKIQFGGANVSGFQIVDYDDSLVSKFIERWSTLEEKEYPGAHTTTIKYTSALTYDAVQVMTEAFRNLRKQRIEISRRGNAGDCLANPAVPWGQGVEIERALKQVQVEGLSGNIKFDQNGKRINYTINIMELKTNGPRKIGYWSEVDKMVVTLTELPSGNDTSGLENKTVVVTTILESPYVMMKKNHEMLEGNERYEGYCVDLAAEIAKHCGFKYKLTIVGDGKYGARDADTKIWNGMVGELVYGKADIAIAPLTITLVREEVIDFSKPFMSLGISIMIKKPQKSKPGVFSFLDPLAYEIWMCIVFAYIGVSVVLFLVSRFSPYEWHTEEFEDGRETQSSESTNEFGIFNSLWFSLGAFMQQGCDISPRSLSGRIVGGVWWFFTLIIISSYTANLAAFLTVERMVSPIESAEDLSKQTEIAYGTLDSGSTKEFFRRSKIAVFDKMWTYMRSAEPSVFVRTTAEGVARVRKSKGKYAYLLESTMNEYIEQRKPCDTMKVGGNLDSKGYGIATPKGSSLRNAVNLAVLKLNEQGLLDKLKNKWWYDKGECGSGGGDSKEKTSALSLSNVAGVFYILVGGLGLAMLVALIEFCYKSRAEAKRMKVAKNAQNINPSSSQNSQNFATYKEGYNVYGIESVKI

- concentrations inhibiting glutamate-induced membrane currents (human GluR1/2 receptors): 30 to 1000 µM
SMILES: Nc1c(Br)cc(Br)cc1CN[C@H]1CC[C@H](O)CC1 [ambroxol, trans-4-(2-amino-3,5-dibromobenzylamino)cyclohexanol]
- IC50 [1]: 111 µM
